Results taken from patent US5565566A (Discovery Therapeutics, Inc., priority 1995, dated 1996).
Like-named read-outs stand apart in the source and are kept apart here.

How the values were obtained:
A1 receptors [1] = biological target: T1, A1 receptors (Rattus norvegicus, UniProt P25099); assay: inhibition of binding of [3H]-phenylisopropyladenosine in rat brain membranes (D); set-up: Rat Brain Membranes; from tissue; host or cells: rat brain (membranes)
T1 sequence (P25099 1-326): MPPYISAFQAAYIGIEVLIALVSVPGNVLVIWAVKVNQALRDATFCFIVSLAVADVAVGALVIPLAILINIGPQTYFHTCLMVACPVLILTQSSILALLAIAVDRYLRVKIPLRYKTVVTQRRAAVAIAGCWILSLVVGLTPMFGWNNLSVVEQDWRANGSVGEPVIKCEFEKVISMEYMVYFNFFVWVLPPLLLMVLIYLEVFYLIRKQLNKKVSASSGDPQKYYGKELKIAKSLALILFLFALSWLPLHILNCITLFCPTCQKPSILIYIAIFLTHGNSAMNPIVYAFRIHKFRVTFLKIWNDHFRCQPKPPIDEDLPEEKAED
Experimental: (§1) For activity at A1 receptors, compounds were tested as inhibitors of the binding of N^6 -[…]-[3H]-Phenylisopropyladenosine in rat brain membranes and for their ability to prevent R-PIA-induced inhibition of adenylate cyclase in rat fat cell membranes.
(D) Rat Brain Membranes

A2 receptors [2] = biological target: T2, A2 receptors (Rattus norvegicus, UniProt P30543); assay: antagonism of NECA-stimulated adenylate cyclase in rat PC12 membranes (B); type: biochemical
T2 construct: Rat PC12 Membranes; endogenous in cells; host or cells: PC12
T2 sequence (P30543 whole entry): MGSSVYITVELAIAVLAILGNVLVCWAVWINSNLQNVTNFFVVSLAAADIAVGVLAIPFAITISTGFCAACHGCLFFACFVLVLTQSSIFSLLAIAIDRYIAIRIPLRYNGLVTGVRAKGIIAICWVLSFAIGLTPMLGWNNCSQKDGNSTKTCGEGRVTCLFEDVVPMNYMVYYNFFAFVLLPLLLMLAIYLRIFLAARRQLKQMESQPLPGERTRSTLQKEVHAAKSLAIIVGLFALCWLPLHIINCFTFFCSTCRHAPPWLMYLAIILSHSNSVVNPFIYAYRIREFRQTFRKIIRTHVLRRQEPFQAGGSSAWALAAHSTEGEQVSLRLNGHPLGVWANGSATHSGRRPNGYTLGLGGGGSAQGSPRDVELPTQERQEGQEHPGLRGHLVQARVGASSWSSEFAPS

A1 receptors [3] = biological target: T1, A1 receptors; assay: prevention of R-PIA-induced inhibition of adenylate cyclase in rat fat cell membranes (C); type: biochemical; set-up: from tissue
Experimental: as §1
(C) Rat Fat Cell Membranes

A2 receptors [4] = biological target: T3, A2 receptors (Homo sapiens, UniProt P29274); assay: antagonism of NECA-stimulated adenylate cyclase in human platelet membranes (A); type: biochemical
T3 construct: Human Platelet Membranes; from tissue; host or cells: human platelets (membranes)
T3 sequence (P29274 whole entry): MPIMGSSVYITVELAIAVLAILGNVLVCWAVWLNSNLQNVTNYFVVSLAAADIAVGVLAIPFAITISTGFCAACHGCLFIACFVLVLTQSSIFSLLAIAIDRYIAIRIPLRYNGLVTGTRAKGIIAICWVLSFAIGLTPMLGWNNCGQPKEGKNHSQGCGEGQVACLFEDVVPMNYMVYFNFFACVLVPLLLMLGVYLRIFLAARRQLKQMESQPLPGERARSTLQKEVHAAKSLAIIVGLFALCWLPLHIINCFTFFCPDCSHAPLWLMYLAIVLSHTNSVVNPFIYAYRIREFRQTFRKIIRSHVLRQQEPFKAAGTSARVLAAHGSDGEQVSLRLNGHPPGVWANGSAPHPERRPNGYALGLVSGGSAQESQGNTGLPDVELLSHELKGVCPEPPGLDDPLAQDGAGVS

[5] = biological target: T4, rat cortical A1 receptors (Rattus norvegicus, UniProt P25099); assay: displacement of [3H]-CHA from rat cortical A1 receptors; type: binding
T4 construct: rat cortical membranes were the receptor source; from tissue; host or cells: rat cerebral cortex (male Sprague Dawley) membranes
T4 sequence (P25099 1-326): T1 sequence (P25099 1-326)
Experimental: Varying concentrations of test compounds were incubated with the appropriate radioligand and membrane source for 1 hr at room temperature.
Assays were terminated by filtration over Whatman GF/B filters that had been pre-soaked with 0.1% polyethyleneimine using a 24 port Brandell cell havester. The filters were washed three times with 3 ml of ice cold buffer and transfered to plastic scintillation vials to which 4 ml of Beckman Ready protein scintillation cocktail was added. The tubes were shaken and counted in a Beckman 3801 scintillation counter that converted cpm to dpm.
Data were analyzed by utilizing the Ligand, commercial computer program (Munson and Rodbard, 1980).
Male Sprague Dawley rats were killed by decapitation and the brains removed. The cerebral cortices were homogenized in 50 mm Tris; 2mm MgCl2 (pH 7.4), and centrifuged at 40,000×g for 10 minutes. […] The homogenate was centrifuged, washed once, resuspended to a protein concentration of 5-10 mg/ml and frozen at -70° C. until use.

[6] = (A) Human Platelet Membranes, A2 Effects
[7] = (B) Rat PC12 Membranes, A2 Effects
[8] = (C) Rat Fat Cell Membranes, A1 Effects, read-out: KB vs PIA INHIBITION (Adenylate Cyclase)
[9] = (D) Rat Brain Membranes, A1 Effects, read-out: Ki vs [^3 H] PI (Binding)
[10] = [3H]-CHA, rat cortical A1 receptors, read-out: Rat Cortical Binding Constant Ki

Kb (A2 receptors [4]; [6]) [µM]	Kb (A2 receptors [2]; [7]) [µM]	Kb (A1 receptors [3]; [8]) [µM]	Ki (A1 receptors [1]; [9]) [µM]	Molecule	further results
–	–	–	–	Cn1cnc2c(N)ncnc21 [9-Methyladenine (9-MA), 9-Methyladenine, reference compound]	Ki (A1 receptors [1]): 106 µM; Kb (A2 receptors [2]): 24 µM; Kb (A1 receptors [3]): 112 µM
7.4	21	0.65	–	Cn1cnc2c(NC3CCCCC3)ncnc21 [N^6 -Cyclohexyl-9-MA]	–
–	–	–	–	CNc1ncnc2c1ncn2C [N^6 -Methyl-9-MA]	Ki (A1 receptors [1]): > 100 µM; Kb (A2 receptors [4]): 150 µM; Kb (A2 receptors [2]): 130 µM; Kb (A1 receptors [3]): 220 µM
21	107	10	25	Cn1cnc2c(Nc3ccccc3)ncnc21 [N^6 Phenyl-9-MA, N^6 -Phenyl-9-MA]	–
13	25	–	–	C[C@H](Cc1ccccc1)Nc1ncnc2c1ncn2C [N^6 R-1-Phenyl-2-propyl-9-MA, N^6 -R-1-Phenyl-2-propyl-9-MA]	Ki (A1 receptors [1]): 2.5 µM; Kb (A1 receptors [3]): 7.2 µM
92	117	96	41	Cn1cnc2c(NCCc3cccnc3)ncnc21 [N^6-2-(3-Pyridylethyl)-9-MA]	–
14	25	24	20	Cn1cnc2c(NCCc3ccsc3)ncnc21 [N^6-2-(3-Thienylethyl)-9-MA]	–
57	100	49	17	Cn1cnc2c(NCc3ccccc3)ncnc21 [N^6-2-Benzyl-9-MA, N^6 -Benzyl-9-MA]	–
11	29	17	8.5	Cn1cnc2c(Nc3ccccc3F)ncnc21 [N^6-2-Fluorophenyl-9-MA, N^6-2-Fluorophenyl-9-MA]	–
5.5	23	0.89	1.2	Cn1cnc2c(NC3CCC3)ncnc21 [N^6-cyclobutyl-0-MA, N^6 -Cyclobutyl-9-Methyl Adenine]	–
170	120	> 300	> 100	Cn1cnc2c(NCCc3ccccc3)ncnc21 [compound 0990, N^6-2-(phenethyl)9-MA]	Ki [5, 10]: > 10 µM
23	40	122	> 100	COc1cc(CCNc2ncnc3c2ncn3C)cc(OC)c1OC [compound 1002, N^6-2-(3,4,5-Trimethoxyphenyl) ethyl-9-MA]	Ki [5, 10]: > 10 µM
–	–	–	–	CCCC(Nc1ncnc2c1ncn2C)C(=O)O (stereo not drawn) [compound 1004, N^6-1-carboxy-1-butyl-9-MA]	Ki [5, 10]: > 100 µM
–	–	9	2.5	N^6 -Methylcyclopentyl-9-MA [N^6 -Methylcylopentyl-9-MA]	Kb (A2 receptors [4]; read-out: KB vs NECA Stimulation (Adenylate Cyclase), (A) Human Platelet Membranes, A2 Effects): 45 µM; Kb (A2 receptors [2]; read-out: KB vs NECA Stimulation (Adenylate Cyclase), (B) Rat PC12 Membranes, A2 Effects): 56 µM

Molecule	Kb (A2 receptors [4]; [6]) [µM]	Kb (A2 receptors [2]; [7]) [µM]	Kb (A1 receptors [3]; [8]) [µM]	Ki (A1 receptors [1]; [9]) [µM]	further results
C[C@@H](Cc1ccccc1)Nc1ncnc2c1ncn2C [compound 0986, N^6 -S-1-phenyl-2-propyl-9-MA]	–	74	–	–	Ki (A1 receptors [1]): 10 µM; Ki [5]: > 10 µM; Kb (A2 receptors [4]): 23 µM
